How the values were obtained:
Assay in all cases: KINOMEscan (ScanMAX) kinase profiling
Format in all cases: binding
panel of 468 kinases [1] = target: T1, panel of 468 kinases (Homo sapiens, UniProt P45983); details: JNK1; 1 μM; read-out: % control
T1 construct: purchased KINOMEscan (ScanMAX) service

panel of 468 kinases [2] = target: T2, panel of 468 kinases (Homo sapiens, UniProt Q16288); details: TRKC; 1 μM; read-out: % control
T2 construct: purchased KINOMEscan (ScanMAX) service

panel of 468 kinases [3] = target: T3, panel of 468 kinases (Homo sapiens, UniProt Q96RR4); details: CAMKK2; 1 μM; read-out: % control
T3 construct: purchased KINOMEscan (ScanMAX) service
T3 sequence (Q96RR4 whole entry): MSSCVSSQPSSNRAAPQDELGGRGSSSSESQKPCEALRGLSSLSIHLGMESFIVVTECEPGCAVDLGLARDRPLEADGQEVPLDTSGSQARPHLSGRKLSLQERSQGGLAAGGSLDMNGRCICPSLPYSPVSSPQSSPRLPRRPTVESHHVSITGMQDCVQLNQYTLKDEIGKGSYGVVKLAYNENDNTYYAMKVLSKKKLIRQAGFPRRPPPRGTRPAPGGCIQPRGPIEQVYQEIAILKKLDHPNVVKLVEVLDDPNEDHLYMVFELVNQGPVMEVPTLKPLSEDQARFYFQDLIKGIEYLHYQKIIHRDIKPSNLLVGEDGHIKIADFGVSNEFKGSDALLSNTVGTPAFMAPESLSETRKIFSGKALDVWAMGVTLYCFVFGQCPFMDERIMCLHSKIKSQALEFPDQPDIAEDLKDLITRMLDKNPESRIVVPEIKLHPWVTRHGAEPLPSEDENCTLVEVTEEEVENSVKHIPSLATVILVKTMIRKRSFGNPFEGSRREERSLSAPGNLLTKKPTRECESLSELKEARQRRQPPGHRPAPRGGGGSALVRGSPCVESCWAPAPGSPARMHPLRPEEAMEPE

panel of 468 kinases [4] = target: T4, panel of 468 kinases (Homo sapiens, UniProt Q9Y243); details: AKT3; 1 μM; read-out: % control
T4 construct: purchased KINOMEscan (ScanMAX) service
T4 sequence (Q9Y243 whole entry): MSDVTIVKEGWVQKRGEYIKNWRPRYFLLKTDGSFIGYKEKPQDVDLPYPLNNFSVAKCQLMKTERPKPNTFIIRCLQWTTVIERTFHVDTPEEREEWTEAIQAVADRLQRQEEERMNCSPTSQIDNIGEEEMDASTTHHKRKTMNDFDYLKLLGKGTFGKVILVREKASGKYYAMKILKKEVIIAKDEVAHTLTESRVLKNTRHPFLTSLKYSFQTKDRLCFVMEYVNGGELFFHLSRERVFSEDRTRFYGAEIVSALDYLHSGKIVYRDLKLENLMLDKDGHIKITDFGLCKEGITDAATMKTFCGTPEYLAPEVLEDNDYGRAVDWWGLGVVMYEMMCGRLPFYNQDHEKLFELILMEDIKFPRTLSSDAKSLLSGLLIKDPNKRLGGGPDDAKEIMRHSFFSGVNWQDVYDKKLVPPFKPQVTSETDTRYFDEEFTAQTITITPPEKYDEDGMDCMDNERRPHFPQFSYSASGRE

panel of 468 kinases [5] = target: T5, panel of 468 kinases (Homo sapiens, UniProt P54760); details: EPHB4; 1 μM; read-out: % control
T5 construct: purchased KINOMEscan (ScanMAX) service
T5 sequence (P54760 16-987): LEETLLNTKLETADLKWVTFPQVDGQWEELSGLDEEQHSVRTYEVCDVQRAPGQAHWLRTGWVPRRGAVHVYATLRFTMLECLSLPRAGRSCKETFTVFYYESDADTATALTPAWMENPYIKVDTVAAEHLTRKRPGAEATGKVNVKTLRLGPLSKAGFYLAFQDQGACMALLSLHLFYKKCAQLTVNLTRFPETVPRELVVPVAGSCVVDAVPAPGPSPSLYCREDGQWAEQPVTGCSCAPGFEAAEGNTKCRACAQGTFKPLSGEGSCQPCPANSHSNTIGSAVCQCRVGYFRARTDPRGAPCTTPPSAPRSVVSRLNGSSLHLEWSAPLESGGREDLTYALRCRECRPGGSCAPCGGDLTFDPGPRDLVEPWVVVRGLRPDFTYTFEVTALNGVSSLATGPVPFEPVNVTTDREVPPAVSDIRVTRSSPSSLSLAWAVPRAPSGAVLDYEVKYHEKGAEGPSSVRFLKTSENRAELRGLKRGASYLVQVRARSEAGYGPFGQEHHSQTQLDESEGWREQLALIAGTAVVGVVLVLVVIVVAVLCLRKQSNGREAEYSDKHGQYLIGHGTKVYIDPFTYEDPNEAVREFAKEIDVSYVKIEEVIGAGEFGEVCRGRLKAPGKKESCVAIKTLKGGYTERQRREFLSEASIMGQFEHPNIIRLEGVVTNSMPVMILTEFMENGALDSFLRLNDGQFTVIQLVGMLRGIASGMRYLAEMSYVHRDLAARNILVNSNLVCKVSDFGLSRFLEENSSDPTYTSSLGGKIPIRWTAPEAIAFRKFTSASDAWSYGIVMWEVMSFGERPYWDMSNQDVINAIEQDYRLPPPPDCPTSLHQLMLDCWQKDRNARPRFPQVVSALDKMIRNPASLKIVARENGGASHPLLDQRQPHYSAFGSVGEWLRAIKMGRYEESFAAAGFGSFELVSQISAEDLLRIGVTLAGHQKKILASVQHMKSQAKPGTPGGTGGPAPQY

panel of 468 kinases [6] = target: T6, panel of 468 kinases (Homo sapiens, UniProt Q8NEB9); details: VPS34; 1 μM; read-out: % control
T6 construct: purchased KINOMEscan (ScanMAX) service
T6 sequence (Q8NEB9 whole entry): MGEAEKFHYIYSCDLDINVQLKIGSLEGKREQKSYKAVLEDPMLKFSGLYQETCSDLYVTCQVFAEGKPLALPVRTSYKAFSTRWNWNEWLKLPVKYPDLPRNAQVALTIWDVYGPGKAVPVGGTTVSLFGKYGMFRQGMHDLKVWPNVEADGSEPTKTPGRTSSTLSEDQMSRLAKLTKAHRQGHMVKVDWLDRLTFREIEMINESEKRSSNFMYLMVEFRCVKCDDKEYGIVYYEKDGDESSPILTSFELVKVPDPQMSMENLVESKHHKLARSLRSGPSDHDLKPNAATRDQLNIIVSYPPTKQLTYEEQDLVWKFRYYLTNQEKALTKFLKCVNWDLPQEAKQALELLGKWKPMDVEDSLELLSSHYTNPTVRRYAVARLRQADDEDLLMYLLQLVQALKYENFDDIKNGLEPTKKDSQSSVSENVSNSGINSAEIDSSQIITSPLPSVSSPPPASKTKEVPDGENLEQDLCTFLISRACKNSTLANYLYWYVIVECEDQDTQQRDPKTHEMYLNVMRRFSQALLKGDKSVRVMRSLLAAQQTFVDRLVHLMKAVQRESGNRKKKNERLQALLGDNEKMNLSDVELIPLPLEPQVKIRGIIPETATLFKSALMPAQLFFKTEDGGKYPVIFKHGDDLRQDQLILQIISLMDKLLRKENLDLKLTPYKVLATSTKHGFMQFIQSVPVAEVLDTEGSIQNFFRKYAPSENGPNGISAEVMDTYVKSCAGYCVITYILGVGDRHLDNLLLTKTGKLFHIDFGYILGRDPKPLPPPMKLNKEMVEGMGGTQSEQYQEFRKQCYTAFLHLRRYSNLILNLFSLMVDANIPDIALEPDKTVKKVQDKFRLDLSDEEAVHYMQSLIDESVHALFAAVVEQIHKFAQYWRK

panel of 468 kinases [7] = target: T7, panel of 468 kinases (Homo sapiens, UniProt Q9UF33); details: EPHA6; 1 μM; read-out: % control
T7 construct: purchased KINOMEscan (ScanMAX) service
T7 sequence (Q9UF33 23-1036): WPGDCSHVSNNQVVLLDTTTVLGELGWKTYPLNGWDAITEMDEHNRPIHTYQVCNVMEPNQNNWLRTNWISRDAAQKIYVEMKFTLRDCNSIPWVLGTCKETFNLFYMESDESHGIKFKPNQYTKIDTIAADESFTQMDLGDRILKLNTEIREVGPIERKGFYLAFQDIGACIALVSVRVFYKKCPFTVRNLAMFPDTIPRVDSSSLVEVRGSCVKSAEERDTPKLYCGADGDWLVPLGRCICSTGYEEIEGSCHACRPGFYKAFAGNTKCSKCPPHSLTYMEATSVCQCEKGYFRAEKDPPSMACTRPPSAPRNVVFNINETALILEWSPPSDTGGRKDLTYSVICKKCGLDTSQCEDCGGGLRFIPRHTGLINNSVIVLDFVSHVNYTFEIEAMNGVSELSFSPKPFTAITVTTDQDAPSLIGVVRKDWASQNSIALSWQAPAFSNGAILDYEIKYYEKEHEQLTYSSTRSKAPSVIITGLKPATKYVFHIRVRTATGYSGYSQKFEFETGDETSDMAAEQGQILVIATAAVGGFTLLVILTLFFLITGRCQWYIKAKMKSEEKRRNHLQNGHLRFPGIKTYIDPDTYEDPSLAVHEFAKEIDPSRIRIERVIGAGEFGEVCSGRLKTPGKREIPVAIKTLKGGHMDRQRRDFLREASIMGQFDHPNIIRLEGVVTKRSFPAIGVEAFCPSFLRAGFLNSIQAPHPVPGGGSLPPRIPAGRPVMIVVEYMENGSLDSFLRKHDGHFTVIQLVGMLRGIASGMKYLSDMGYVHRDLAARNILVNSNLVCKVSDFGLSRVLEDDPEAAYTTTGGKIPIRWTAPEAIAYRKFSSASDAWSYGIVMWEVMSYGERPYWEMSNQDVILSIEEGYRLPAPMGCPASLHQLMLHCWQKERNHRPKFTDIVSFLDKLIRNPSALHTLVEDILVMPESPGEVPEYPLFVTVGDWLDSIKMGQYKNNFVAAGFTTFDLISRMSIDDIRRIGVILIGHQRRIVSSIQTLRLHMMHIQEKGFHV

panel of 468 kinases [8] = target: T8, panel of 468 kinases (Homo sapiens, UniProt Q9HBH9); details: MKNK2; 1 μM; read-out: % control
T8 construct: purchased KINOMEscan (ScanMAX) service
T8 sequence (Q9HBH9 whole entry): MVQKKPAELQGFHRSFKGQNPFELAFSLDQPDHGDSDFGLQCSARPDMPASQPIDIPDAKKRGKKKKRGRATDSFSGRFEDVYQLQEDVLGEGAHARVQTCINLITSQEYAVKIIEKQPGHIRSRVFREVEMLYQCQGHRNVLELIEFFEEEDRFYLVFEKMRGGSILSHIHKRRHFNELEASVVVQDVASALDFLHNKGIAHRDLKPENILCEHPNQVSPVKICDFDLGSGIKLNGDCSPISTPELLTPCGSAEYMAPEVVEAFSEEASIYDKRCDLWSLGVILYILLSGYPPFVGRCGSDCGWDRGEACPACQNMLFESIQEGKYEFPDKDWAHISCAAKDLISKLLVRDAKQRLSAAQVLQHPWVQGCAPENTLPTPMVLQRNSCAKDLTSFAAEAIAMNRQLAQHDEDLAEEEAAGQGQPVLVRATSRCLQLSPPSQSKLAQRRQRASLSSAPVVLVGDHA

T1 sequence (P45983 whole entry): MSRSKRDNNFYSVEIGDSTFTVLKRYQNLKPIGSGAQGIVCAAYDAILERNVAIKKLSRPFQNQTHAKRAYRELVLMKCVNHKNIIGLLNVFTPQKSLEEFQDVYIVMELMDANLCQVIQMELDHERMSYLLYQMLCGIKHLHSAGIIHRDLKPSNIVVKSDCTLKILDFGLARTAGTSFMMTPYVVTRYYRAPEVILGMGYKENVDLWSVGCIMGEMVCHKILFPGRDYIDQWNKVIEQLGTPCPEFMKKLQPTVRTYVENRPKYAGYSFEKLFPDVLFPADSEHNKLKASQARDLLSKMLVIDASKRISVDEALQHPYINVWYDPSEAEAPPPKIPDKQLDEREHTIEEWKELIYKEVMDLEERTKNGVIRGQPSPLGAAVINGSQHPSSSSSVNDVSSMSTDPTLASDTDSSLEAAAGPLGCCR
T2 sequence (Q16288 32-839): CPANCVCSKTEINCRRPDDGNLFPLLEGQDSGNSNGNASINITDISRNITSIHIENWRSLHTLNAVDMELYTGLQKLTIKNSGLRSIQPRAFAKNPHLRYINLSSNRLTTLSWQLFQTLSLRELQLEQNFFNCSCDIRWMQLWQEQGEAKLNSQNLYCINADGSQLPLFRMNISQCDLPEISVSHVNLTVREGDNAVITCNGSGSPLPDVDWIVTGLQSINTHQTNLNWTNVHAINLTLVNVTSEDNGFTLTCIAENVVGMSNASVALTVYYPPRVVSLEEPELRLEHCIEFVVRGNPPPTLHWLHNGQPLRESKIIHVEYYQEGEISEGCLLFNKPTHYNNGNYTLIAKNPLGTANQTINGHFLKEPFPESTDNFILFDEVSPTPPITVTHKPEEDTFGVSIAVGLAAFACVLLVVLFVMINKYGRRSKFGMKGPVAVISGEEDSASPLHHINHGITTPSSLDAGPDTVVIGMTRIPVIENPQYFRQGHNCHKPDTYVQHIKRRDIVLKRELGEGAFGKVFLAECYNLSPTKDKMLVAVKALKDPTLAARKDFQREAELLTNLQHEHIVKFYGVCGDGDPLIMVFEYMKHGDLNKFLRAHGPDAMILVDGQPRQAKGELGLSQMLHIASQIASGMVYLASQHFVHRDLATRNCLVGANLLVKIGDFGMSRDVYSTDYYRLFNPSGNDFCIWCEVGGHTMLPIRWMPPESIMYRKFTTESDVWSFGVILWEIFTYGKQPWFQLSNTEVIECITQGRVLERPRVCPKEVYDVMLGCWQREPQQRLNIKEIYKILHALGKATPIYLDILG

SMILES | remaining binding at 1 µM (panel of 468 kinases [1]) [%] | remaining binding at 1 µM (panel of 468 kinases [2]) [%] | remaining binding at 1 µM (panel of 468 kinases [3]) [%] | remaining binding at 1 µM (panel of 468 kinases [4]) [%] | remaining binding at 1 µM (panel of 468 kinases [5]) [%] | remaining binding at 1 µM (panel of 468 kinases [6]) [%] | remaining binding at 1 µM (panel of 468 kinases [7]) [%] | remaining binding at 1 µM (panel of 468 kinases [8]) [%]
CNc1nc(Nc2ccc(S(=O)(=O)N3CCC(N4CCOCC4)CC3)cc2OC)nc2[nH]cc(Cl)c12 [Compound 12, 5-chloro-N2-(2-methoxy-4-((4-morpholinopiperidin-1-yl)sulfonyl)phenyl)-N4-methyl-7H-pyrrolo[2,3-d]pyrimidine-2,4-diamine] | 11 | 100 | 68 | 100 | 100 | 62 | 100 | 57
CNc1nc(Nc2ccc(P3(=O)CCN(C4CCOCC4)CC3)cc2OC)nc2[nH]cc(Cl)c12 [Compound 77, 4-(4-((5-chloro-4-(methylamino)-7H-pyrrolo[2,3-d]pyrimidin-2-yl)amino)-3-methoxyphenyl)-1-(tetrahydro-2H-pyran-4-yl)-1,4-azaphosphinane 4-oxide] | 0.65 | 100 | 25 | 100 | 100 | 71 | 100 | 31
CNc1nc(Nc2ccc(C(=O)N3CCC(N4CCOCC4)CC3)c3c2OCO3)nc2[nH]cc(Cl)c12 [Compound 75, (7-((5-chloro-4-(methylamino)-7H-pyrrolo[2,3-d]pyrimidin-2-yl)amino)benzo[d][1,3]dioxol-4-yl)(4-morpholinopiperidin-1-yl)methanone] | 0.1 | 100 | 42 | 100 | 100 | 69 | 100 | 10
